Measurements reported in PMC12396409, “Screening and hit evaluation of a microbial metabolite library against the pathogenic Plasmodium falciparum and Toxoplasma gondii parasites” (International Journal for Parasitology: Drugs and Drug …, 2025).
Where two headings read alike, the source gives them in different places.

How the values were obtained:
[1] = test system: P. falciparum 3D7 parasites; test: P. falciparum growth inhibition assay, 2-cycle (120 h treatment), delayed-death screen and dose-response; assay type: cell-based, Plasmodium falciparum; details: for Pf_120h_%Growth_Rep1 / Pf_120h_%Growth_Rep2: library screen at 2 μg/mL, % growth; for activity at 2 µg/mL: Plasmodium falciparum, 3D7, 120 h, P. falciparum, screen at 2 μg/mL
[2] = test system: T. gondii RH strain (RH-Tub-eYFP) tachyzoites; test: microbe, parasite or virus in culture; assay type: cell-based, Toxoplasma gondii; details: 72 h; for Tg_72h_%Growth_Rep1 / Tg_72h_%Growth_Rep2: library screen at 2 μg/mL, % growth; for percent parasite growth at 2 µg/mL: Toxoplasma gondii, screen at 2 μg/mL
[3] = test system: P. falciparum 3D7 parasites; test: P. falciparum growth inhibition assay, 1-cycle (72 h treatment), SYBR DNA staining (library screen at 2 μg/mL and dose-response); assay type: cell-based, Plasmodium falciparum; details: for Pf_72h_%Growth_Rep1 / Pf_72h_%Growth_Rep2: library screen at 2 μg/mL, % growth; for activity at 2 µg/mL: Plasmodium falciparum, 3D7, 72 h, P. falciparum, screen at 2 μg/mL
[4] = T. gondii, 2 μg/mL, values are growth (% of control)
[5] = P. falciparum 3D7, 120 h, replicate 1
[6] = P. falciparum 3D7, 120 h, replicate 2
[7] = P. falciparum 3D7, 72 h, replicate 1
[8] = P. falciparum 3D7, 72 h, replicate 2

Row | Compound | Pf_120h_%Growth_Rep1 ([1]; 120 h, replicate 1) [%] | Pf_120h_%Growth_Rep2 ([1]; 120 h, replicate 2) [%] | Tg_72h_%Growth_Rep1 ([2]; replicate 1) [%] | Tg_72h_%Growth_Rep2 ([2]; replicate 2) [%] | Pf_72h_%Growth_Rep1 ([3]; 72 h, replicate 1) [%] | Pf_72h_%Growth_Rep2 ([3]; 72 h, replicate 2) [%] | other results
1 | C[C@@H]1C=C2C(=O)O[C@@H]3CC[C@H](C1)[C@]23O [Galiellalactone] | 91.95 | 97.41 | 132.28 | 99.14 | 88.40 | 106.75 | 
2 | COc1c(Cl)c(O)c(Cl)c(C)c1C(=O)O[C@H]1[C@H](O)C[C@H](O[C@H]2[C@@H](O)CC(=O)O[C@@H]2C)O[C@@H]1C [Flambalactone] | 97.51 | 89.66 | 143.45 | 100.30 | 83.21 | 82.63 | 
3 | C=CC(C)(C)C12CC3C(=O)Nc4ccccc4C(=O)N3C1Nc1ccccc12 (stereo not drawn) [Aszonalenin] | 90.27 | 94.67 | 156.81 | 98.02 | 81.55 | 89.57 | 
4 | COc1cc([C@H]2[C@@]3(O)[C@H](O)[C@H]4C[C@]2(O)[C@](O)(C(=O)O4)[C@H]3C(=O)c2ccccc2)oc(=O)c1 [Enterocin] | 80.40 | 114.14 | 101.62 | 91.26 | 81.25 | 72.68 | 
5 | C/C=C/C=C/C=C/C(=O)N[C@H]1CCCNC(=O)[C@H](C)N(C)C(=O)[C@H](C(C)C)N(C)C1=O [Aspochracin] | 147.75 | 101.25 | 82.68 | 94.06 | 109.60 | 89.28 | 
6 | CN(C)[C@H]1C(O)=C(C(N)=O)C(=O)[C@@]2(O)C(O)=C3C(=O)c4c(O)cccc4[C@@](C)(O)[C@H]3[C@H](O)[C@@H]12 [Epioxytetracycline] | 99.19 | 96.08 | 152.95 | 107.04 | 86.72 | 78.69 | 
7 | COc1ccc2cc1Oc1cc(ccc1O)[C@H](O)[C@]13SS[C@@]4(C(=O)N1C)[C@H](O)C1=COC=C[C@H](OC2=O)[C@H]1N4C3=O [Emestrin] | 35.44 | 47.36 | 2.77 | 0.86 | 36.85 | 26.37 | 
8 | COc1cc2c(oc(=O)c3cc(C)cc(OC)c32)c2c([C@@H]3O[C@H](C)[C@H](O)[C@@](C)(O)[C@H]3O)ccc(O)c12 [Chrysomycin B] |  |  |  |  |  |  | activity at 2 µg/mL ([1]; 120 h, replicate 1, read-out: Pf_120h_%Growth_Rep1): 73%; activity at 2 µg/mL ([1]; 120 h, replicate 2, read-out: Pf_120h_%Growth_Rep2): 73.7%; Mean ([2]; T. gondii, 2 μg/mL, mean of both replicates, growth (% of control)): 21.06; Replicate 1 [2, 4]: 25.01; Replicate 2 [2, 4]: 17.10; percent parasite growth at 2 µg/mL ([2]; T. gondii, replicate 1, read-out: Tg_72h_%Growth_Rep1): 25%; percent parasite growth at 2 µg/mL ([2]; T. gondii, replicate 2, read-out: Tg_72h_%Growth_Rep2): 17.1%; activity at 2 µg/mL ([3]; 72 h, replicate 1, read-out: Pf_72h_%Growth_Rep1): 67.5%; activity at 2 µg/mL ([3]; 72 h, replicate 2, read-out: Pf_72h_%Growth_Rep2): 64.1%
9 | COc1cc(C)c2c(OC)cc(=O)oc2c1-c1c(OC)cc(C)c2c(OC)cc(=O)oc12 [BIA-K1634] |  |  |  |  |  |  | Pf_120h_%Growth_Rep1 [1, 5]: 81.50%; Pf_120h_%Growth_Rep2 [1, 6]: 124.49%; Tg_72h_%Growth_Rep1 ([2]; T. gondii RH, replicate 1): 128.61%; Tg_72h_%Growth_Rep2 ([2]; T. gondii RH, replicate 2): 101.38%; Pf_72h_%Growth_Rep1 [3, 7]: 79.71%; Pf_72h_%Growth_Rep2 [3, 8]: 89.27%
10 | Oc1cccc2nc3ccccc3nc12 [BIA-H1520] |  |  |  |  |  |  | Pf_120h_%Growth_Rep1 [1, 5]: 70.83%; Pf_120h_%Growth_Rep2 [1, 6]: 82.39%; Tg_72h_%Growth_Rep1 ([2]; T. gondii RH, replicate 1): 90.90%; Tg_72h_%Growth_Rep2 ([2]; T. gondii RH, replicate 2): 78.11%; Pf_72h_%Growth_Rep1 [3, 7]: 84.93%; Pf_72h_%Growth_Rep2 [3, 8]: 98.32%
11 | CCC(C)C1OC2(CCC1C)CC1CC(CC=C(C)C(O)C(C)C=CC=C3COC4C(O)C(C)=CC(C(=O)O1)C34O)O2 (stereo not drawn) [BIA-I1151] |  |  |  |  |  |  | Pf_120h_%Growth_Rep1 [1, 5]: 87.69%; Pf_120h_%Growth_Rep2 [1, 6]: 91.70%; Tg_72h_%Growth_Rep1 ([2]; T. gondii RH, replicate 1): 121.58%; Tg_72h_%Growth_Rep2 ([2]; T. gondii RH, replicate 2): 95.56%; Pf_72h_%Growth_Rep1 [3, 7]: 82.86%; Pf_72h_%Growth_Rep2 [3, 8]: 77.78%
